What was measured:
[1] = system: passive cutaneous anaphylactic reaction in rats produced by injection of serum containing reaginic antibodies to egg albumin; assay: Inhibition of passive cutaneous anaphylactic (PCA) reaction in rats induced by reaginic antibodies; type: in vivo, rat; details: intravenously immediately before antigen
Procedure: Diethylcarbamazin, i.e., 1-diethylcarbamoyl-4-methylpiperazine was used as a comparison compound. Specifically, tests were run as follows:
Serum containing reaginic (IgE-like) antibody to egg albumin was prepared by injecting rats intramuscularly with 0.1 ml of a solution of the antigen (10 mg/ml) in saline together with 0.5 ml of Bordetella pertussis vaccine (Behring; 2 × 10^10 organisms/ml). 9-14 Days later the animals were bled from the abdominal aorta; the serum was pooled and stored at -20° C until required. The titer of the serum, i.e., the highest dilution inducing passive cutaneous anaphylaxis (PCA) in the rat following a 48-hour latent period, was between 1:8 and 1:32. For use in these experiments the serum was diluted 1:24.
The animals were anesthetized with 2,2-dichloro-1,1-difluoroethyl-methyl ether, sold under the trademark Penthrane, and were sensitized by injecting 0.1 ml of the antiserum into the shaved abdominal flanks. After 48 hours for reaginic PCA, the animals were given an intravenous injection of 1 ml of saline solution containing 0.5% by weight of egg albumin and 0.25% by weight of Evans Blue.
After having killed and exsanguinated the animals, the size in square millimeters and the intensity, in arbitary scores, of the resulting blue spot were determined. The product of these two parameters was used to determine the degree of the reaction and the degree of reaction with no active material was taken as the standard against which to measure % inhibition of the anaphylactic reaction.
6 Animals were used per dose level and for control.
The test material was injected intravenously immediately before the antigen, using a solution in water containing 0.5% HCl and 2% of dimethylformamide. For comparative purposes there was also tested diethylcarbamoyl-4-methylpiperazine sold under the tradename Diethylcarbamazin. The volumes of the injections were varied to give the indicated dosage of active material. The results obtained were as follows:
(Ovalbumin 2 × cryst. and Bord. pertussis 2 × 10^10) Active material applied intravenously immediately before antigen

blood pressure = assay: Blood pressure reduction in awake rats with arterial high pressure (sodium chloride / 11-deoxycorticosteroneacetate); type: in vivo, rat; details: 4 hours after application, median
Procedure: In order to establish the effectiveness of the novel products of the invention as agents for reducing blood pressure, a series of tests as follows were carried out.
The following were the test methods used:
The test animals were rats into which arterial catheters had been implanted in a sterile operation via the arteria femoralis into the aorta. It was possible to measure the animals' blood pressure in the awake state directly in the blood with a transducer (Statham Transducer Type TP 23 D 6) via a carrier frequency measuring bridge. The animals were treated by administration of 10% common salt (sodium chloride) in their feed and, starting on the sixth week of their life, two injections per week of 5 mg at a time of 11-deoxycorticosteroneacetate per animal and thus developed an arterial high pressure in the median with values of […]. The test compounds were administered to the animals as follows: After the blood pressure control values had been determined, the animals received the test compound perorally suspended in 10 ml of 1% methyl cellulose solution in the indicated dosage and measurements were taken 4 hours after oral application of the substance.
The values set forth in the Table represent in each case the median of at least 7 individual measurements of blood pressure depression (in mm Hg) per applied substance.

In the case of CNc1ncnc2c1ncn2CCCN1CCC(COc2ccccc2)CC1 [Example 1j, N^6-methyl-9-[3-(4-phenoxymethyl-piperidino)-propyl]-adenine], the “% Inhibition PCA” value ([1]; 0.38 mg/kg) is reported as 21% and the “% Inhibition PCA” value ([1]; 0.75 mg/kg) is reported as 60%.

In the case of OCCNc1ncnc2c1ncn2CCCN1CCC(COc2ccccc2)CC1 [Example 1n, N^6-(2-hydroxyethyl)-9-[3-(4-phenoxy-methyl-piperidino)-propyl]-adenine], the “Maximum Blood Pressure Reduction” value (blood pressure; 25 mg/kg perorally) is reported as -48 ± 5 mm Hg.

With CCNc1ncnc2c1ncn2CCCN1CCC(COc2ccc(F)cc2)CC1 [Example 1m, N^6-ethyl-9-{3-[4-(4-fluorophenoxy-methyl)-piperidino]-propyl}-adenine] the “Maximum Blood Pressure Reduction” value (blood pressure; 25 mg/kg perorally) was -20 ± 6 mm Hg.

CC(N)(Cc1ccc(O)c(O)c1)C(=O)O (stereo not drawn) [α-Methyl-Dopa, reference compound] was tested, and the “Maximum Blood Pressure Reduction” value (blood pressure; 150 mg/kg perorally) was -33 ± 5 mm Hg.

With COc1cccc(OCC2CCN(CCCn3cnc4c(N)ncnc43)CC2)c1 [Example 1g, 9-{3-[4-(3-methoxy-phenoxymethyl)-piperidino]-propyl}-adenine] the “Maximum Blood Pressure Reduction” value (blood pressure; 25 mg/kg perorally) was -18 ± 4 mm Hg.

In the case of Cc1ccccc1OCC1CCN(CCCn2cnc3c(N)ncnc32)CC1 [Example 1i, 9-{3-[4-(2-methyl-phenoxymethyl)-piperidino]-propyl}-adenine], the “Maximum Blood Pressure Reduction” value (blood pressure; 25 mg/kg perorally) is reported as -55 ± 7 mm Hg.

CCN(CC)C(=O)N1CCN(C)CC1 [Diethylcarbamazin, 1-diethylcarbamoyl-4-methylpiperazine, reference compound] was tested, and the “% Inhibition PCA” value ([1]; 60.0 mg/kg) was 58%.

CNc1ncnc2c1ncn2CCCN1CCC(COc2ccc(F)cc2)CC1 [Example 1k, N^6-methyl-9-{3-[4-(4-fluorophenoxy-methyl)-piperidino]-propyl}-adenine] was tested, and the “Maximum Blood Pressure Reduction” value (blood pressure; 25 mg/kg perorally) was -49 ± 8 mm Hg and the “% Inhibition PCA” value ([1]; 0.38 mg/kg) was 21%.

In the case of CCCNc1ncnc2c1ncn2CCCN1CCC(COc2ccccc2)CC1 [Example 1o, N^6-n-propyl-9-[3-(4-phenoxymethyl-piperidino)-propyl]-adenine], the “Maximum Blood Pressure Reduction” value (blood pressure; 25 mg/kg perorally) is reported as -67 ± 7 mm Hg.

With Nc1ncnc2c1ncn2CCCN1CCC(COc2ccc(F)cc2)CC1 [Example 1e, 9-{3-[4-(4-fluorophenoxymethyl)-piperidino]-propyl}-adenine] the “Maximum Blood Pressure Reduction” value (blood pressure; 25 mg/kg perorally) was -60 ± 7 mm Hg and the “% Inhibition PCA” value ([1]; 0.38 mg/kg) was 54%.

COc1ccc(OCC2CCN(CCCn3cnc4c(N)ncnc43)CC2)cc1 [Example 1h, 9-{3-[4-(4-methoxy-phenoxymethyl)-piperidino]-propyl}-adenine] was tested, and the “Maximum Blood Pressure Reduction” value (blood pressure; 25 mg/kg perorally) was -19 ± 3 mm Hg.

Nc1ncnc2c1ncn2CCCN1CCC(COc2ccccc2)CC1 [Example 1, 9-[3-(4-Phenoxymethylpiperidino)-propyl]-adenine] was tested, and the “Maximum Blood Pressure Reduction” value (blood pressure; 25 mg/kg perorally) was -76 ± 5 mm Hg, the “% Inhibition PCA” value ([1]; 0.38 mg/kg) was 27% and the “% Inhibition PCA” value ([1]; 0.75 mg/kg) was 45%.

In the case of CC(C)Nc1ncnc2c1ncn2CCCN1CCC(COc2ccccc2)CC1 [Example 2a, N^6-isopropyl-9-[3-(4-phenoxymethyl-piperidino)-propyl]-adenine], the “Maximum Blood Pressure Reduction” value (blood pressure; 25 mg/kg perorally) is reported as -35 ± 9 mm Hg.

With Nc1ncnc2c1ncn2CCCN1CCC(COc2ccccc2Cl)CC1 [Example 1b, 9-{3-[4-(2-chlorophenoxymethyl)-piperidino]-propy}-adenine] the “Maximum Blood Pressure Reduction” value (blood pressure; 25 mg/kg perorally) was -64 ± 5 mm Hg and the “% Inhibition PCA” value ([1]; 0.38 mg/kg) was 32%.

CCCCNc1ncnc2c1ncn2CCCN1CCC(COc2ccc(F)cc2)CC1 [Example 2, N^6-n-Butyl-9-{3-[4-(4-fluorophenoxymethyl)-piperidino]propyl}-adenine] was tested, and the “Maximum Blood Pressure Reduction” value (blood pressure; 25 mg/kg perorally) was -53 ± 6 mm Hg.

In the case of CCCNc1ncnc2c1ncn2CCCN1CCC(COc2ccc(F)cc2)CC1 [Example 1p, N^6-n-propyl-9-{3-[4-(4-fluorophenoxy-methyl)-piperidino]-propyl}-adenine], the “Maximum Blood Pressure Reduction” value (blood pressure; 25 mg/kg perorally) is reported as -57 ± 8 mm Hg.

For CCCCNc1ncnc2c1ncn2CCCN1CCC(COc2ccccc2)CC1 [Example 2b, N^6-n-butyl-9-[3-(4-phenoxymethyl-piperidino)-propyl]-adenine], the “Maximum Blood Pressure Reduction” value (blood pressure; 50 mg/kg perorally) was -35 ± 11 mm Hg.

CN(C)c1ncnc2c1ncn2CCCN1CCC(COc2ccccc2)CC1 [Example 1q, 6-dimethylamino-9-[3-(4-phenoxymethyl-piperidino)-propyl]-purine] was tested, and the “Maximum Blood Pressure Reduction” value (blood pressure; 25 mg/kg perorally) was -41 ± 7 mm Hg.

With Nc1ncnc2c1ncn2CCCN1CCC(COc2ccc(Cl)cc2)CC1 [Example 1d, 9-{3-[4-(4-chlorophenoxymethyl)-piperidino]-propyl}-adenine] the “Maximum Blood Pressure Reduction” value (blood pressure; 50 mg/kg perorally) was -25 ± 7 mm Hg.

Nc1ncnc2c1ncn2CCCN1CCC(COc2ccccc2Br)CC1 [Example 1a, 9-{3-[4-(2-bromophenoxymethyl)-piperidino]-propyl}-adenine] was tested, and the “Maximum Blood Pressure Reduction” value (blood pressure; 25 mg/kg perorally) was -47 ± 7 mm Hg.
